Laboratory results: patent publication US20240208933A1, “CRYSTALLINE INHIBITORS OF CYSTEINE PROTEASES AND METHODS OF USE THEREOF” (priority 2021, published 2024)
Where two headings read alike, the source gives them in different places.

Experiments:
[1] = Dynamic vapor sorption (DVS) analysis; format: physicochemical
[2] = Approximate solubility determined by visual observation; format: physicochemical; conditions: organic solvent or mixture
Description: Approximate solubility was determined by visual observation and shown in Form C Table 8.
Approximate solubility was determined by visual observation and shown in Form F Table 12.

Row | SMILES | DVS reversible total mass change ([1]; from about 90% to about 0% RH) | DVS gain ([1]; to about 90% relative humidity (RH) at 25° C.) | solubility ([2]; acetone, solvent Acetone, read-out: Solubility of Form C) [mg/mL] | solubility ([2]; ethanol, solvent Ethanol, read-out: Solubility of Form C) [mg/mL] | solubility ([2]; methanol, solvent Methanol, read-out: Solubility of Form C) [mg/mL] | solubility ([2]; methanol/dichloromethane (1/1), solvent Methanol/Dichloromethane (1/1), read-out: Solubility of Form C) [mg/mL] | solubility ([2]; methanol/dichloromethane (1/2), solvent Methanol/Dichloromethane (1/2), read-out: Solubility of Form C) [mg/mL] | solubility ([2]; methanol/dichloromethane (2/1), solvent Methanol/Dichloromethane (2/1), read-out: Solubility of Form C) [mg/mL] | DVS reversable gain ([1]; from about 0 to about 90% relative humidity (RH), no hysteresis) | solubility ([2]; acetone, solvent Acetone, read-out: Solubility of Form F) [mg/mL] | solubility ([2]; ethanol, solvent Ethanol, read-out: Solubility of Form F) [mg/mL] | solubility ([2]; methanol, solvent Methanol, read-out: Solubility of Form F) [mg/mL] | solubility ([2]; methanol/dichloromethane (1/1), solvent Methanol/Dichloromethane (1/1), read-out: Solubility of Form F) [mg/mL] | solubility ([2]; methanol/dichloromethane (1/2), solvent Methanol/Dichloromethane (1/2), read-out: Solubility of Form F) [mg/mL] | solubility ([2]; methanol/dichloromethane (2/1), solvent Methanol/Dichloromethane (2/1), read-out: Solubility of Form F) [mg/mL]
1 | N#C[C@H](C[C@@H]1CCCNC1=O)NC(=O)[C@H](CC1CC1)NC(=O)c1cc2cccc(Cl)c2[nH]1 [Form C, 7-chloro-N—((S)-1-(((S)-1-cyano-2-((S)-2-oxopiperidin-3-yl)ethyl)amino)-3-cyclopropyl-1-oxopropan-2-yl)-1H-indole-2-carboxamide, anhydrate] | about 0.7% | about 0.5% | < 2 | > 2 | > 9 | > 23 | > 28 | > 16 | – | – | – | – | – | – | –
2 | N#C[C@H](C[C@@H]1CCCNC1=O)NC(=O)[C@H](CC1CC1)NC(=O)c1cc2cccc(Cl)c2[nH]1 [Form F, 7-chloro-N—((S)-1-(((S)-1-cyano-2-((S)-2-oxopiperidin-3-yl)ethyl)amino)-3-cyclopropyl-1-oxopropan-2-yl)-1H-indole-2-carboxamide, hydrate] | – | – | – | – | – | – | – | – | about 4 wt. % | < 2 | > 7 | > 11 | > 47 | > 58 | > 19
